In patent US20120196791A1, “COMBINATION THERAPIES USING ANTIBACTERIAL AMINOGLYCOSIDE COMPOUNDS” (Achaogen, Inc., priority 2009, published 2012):
Like-named read-outs stand apart in the source and are kept apart here. Values belong to the molecule of their own block, whether it stands above or below them.

Columns and labels:
Assay type in all cases: cell-based
[1] = system: P. aeruginosa strains; assay: MIC by macrodilution
From the text: (§1) “MIC”, which stands for minimum inhibitory concentration, refers to that concentration, in μg/mL, of a compound of this invention that inhibits the growth and/or proliferation of a strain of bacteria by at least 80% compared to an untreated control as determined by visual inspection of a liquid culture.
Synergy time-kill was used to test the activity of Example 1, alone and in combination with cefepime, doripenem, imipenem and piperacillin/tazobactam, against 10 P. aeruginosa strains. The 10 clinical isolates included 5 cefepime resistant, 5 doripenem resistant, 8 imipenem resistant, and 9 piperacillin/tazobactam resistant strains. MICs were determined by macrodilution and time-kill was used to verify the activity of all five agents alone. MICs were predetermined by macrodilution in cation-adjusted Mueller-Hinton broth (BBL Microbiology Systems, Cockeysville, Md.) according to standard methodology. All strains were tested by time-kill methodology with each compound alone according to standard methods. Strains were examined by PCR for genes encoding aminoglycoside modifying enzymes (AMEs). Cultures were initiated by adding 35-μL aliquots of suspensions into 5 mL of broth. Viability counts (100-μL aliquots) in synergy tests were performed at 0, 3, 6, 12, and 24 h in a shaking water bath at 35° C. with final inocula of between 5×10^5 and 5×10^6 CFU/mL. Only plates with 30 to 300 colonies were counted.

[2] = system: P. aeruginosa strains; assay: Synergy time-kill; settings: with each drug tested, majority of isolates, 24 h
[3] = system: S. aureus strains; assay: MIC by macrodilution
From the text: as §1
Synergy time-kill was used to test the activity of Example 1, alone and in combination with daptomycin (DAP), ceftobiprole (BPR), and linezolid (LZD), against 25 S. aureus strains. 25 clinical isolates included 2 hVISA, 2 VISA, and 5 VRSA, 10 hospital acquired and 6 community acquired MRSA strains. MICs were determined by macrodilution and time-kill was used to verify the activity of all four agents alone. MICs were predetermined by macrodilution in cation-adjusted Mueller-Hinton broth (BBL Microbiology Systems, Cockeysville, Md.) according to standard methodology. Daptomycin susceptibility testing was performed in Mueller-Hinton broth adjusted to 50 μg/mL of calcium according to standard methodology. All strains were tested by time-kill methodology with each compound alone according to standard methods. Cultures were initiated by adding 35-μL aliquots of suspensions into 5 mL of broth. Viability counts (100-μL aliquots) in synergy tests were performed at 0, 3, 6, 12, and 24 h in a shaking water bath at 35° C. with final inocula of between 5×10^5 and 5×10^6 CFU/mL. Only plates with 30 to 300 colonies were counted.

[4] = Pseudomonas aeruginosa, Strain 1, read-out: MIC
[5] = Pseudomonas aeruginosa, Strain 2, read-out: MIC
[6] = Pseudomonas aeruginosa, Strain 3, read-out: MIC
[7] = Pseudomonas aeruginosa, Strain 4, read-out: MIC
[8] = Pseudomonas aeruginosa, Strain 5, read-out: MIC
[9] = Pseudomonas aeruginosa, Strain 6, read-out: MIC
[10] = Pseudomonas aeruginosa, Strain 7, read-out: MIC
[11] = Pseudomonas aeruginosa, Strain 8, read-out: MIC
[12] = Pseudomonas aeruginosa, Strain 9, read-out: MIC
[13] = Pseudomonas aeruginosa, Strain 10, read-out: MIC
[14] = Pseudomonas aeruginosa, range over 10 P. aeruginosa strains, read-out: MICs of each agent alone

MIC [1, 4]: 2 µg/mL
MIC [1, 5]: 0.25 µg/mL
MIC [1, 6]: 4 µg/mL
MIC [1, 7]: 2 µg/mL
MIC [1, 8]: 8 µg/mL
MIC [1, 9]: 0.5 µg/mL
MIC [1, 10]: 8 µg/mL
MIC [1, 11]: 2 µg/mL
MIC [1, 12]: 32 µg/mL
MIC [1, 13]: 8 µg/mL
MIC [1, 14]: 0.25 to 32 µg/mL
SMILES: C[C@@H](O)[C@H]1C(=O)N2C(C(=O)O)=C(S[C@@H]3CN[C@H](CNS(N)(=O)=O)C3)[C@H](C)[C@H]12 [Doripenem, doripenem]

SMILES: CN[C@@H]1[C@@H](O)[C@@H](O[C@@H]2[C@@H](O)[C@H](O[C@H]3OC(CNCCO)=CC[C@H]3N)[C@@H](N)C[C@H]2NC(=O)[C@@H](O)CCN)OC[C@]1(C)O [Example 1, 6′-(2-Hydroxy-ethyl)-1-(4-amino-2(S)-hydroxy-butyryl)-sisomicin]
Example 1 concentration yielding synergy [2]: ¼
MIC ([3]; Strain 1, VRSA): 1.0 µg/mL
MIC ([3]; Strain 2, VRSA): 0.5 µg/mL
MIC ([3]; Strain 3, VRSA): 1.0 µg/mL
MIC ([3]; Strain 4, VRSA): 2.0 µg/mL
MIC ([3]; Strain 5, VRSA): 1.0 µg/mL
MIC ([3]; Strain 6, CA-MRSA, PVL+): 4.0 µg/mL
MIC ([3]; Strain 7, CA-MRSA, PVL+): 2.0 µg/mL
MIC ([3]; Strain 8, CA-MRSA, PVL+): 4.0 µg/mL
MIC ([3]; Strain 9, hVISA): 1.0 µg/mL
MIC ([3]; Strain 10, hVISA): 1.0 µg/mL
MIC ([3]; Strain 11, VISA): 4.0 µg/mL
MIC ([3]; Strain 12, VISA): 4.0 µg/mL
MIC ([3]; Strain 13, ATCC33591 HA-MRSA): 8.0 µg/mL
MIC ([3]; Strain 14, HA-MRSA): 2.0 µg/mL
MIC ([3]; Strain 15, HA-MRSA): 2.0 µg/mL
MIC ([3]; Strain 16, HA-MRSA): 2.0 µg/mL
MIC ([3]; Strain 17, HA-MRSA): 4.0 µg/mL
MIC ([3]; Strain 18, HA-MRSA): 2.0 µg/mL
MIC ([3]; Strain 19, HA-MRSA): 2.0 µg/mL
MIC ([3]; Strain 20, HA-MRSA): 2.0 µg/mL
MIC ([3]; Strain 21, HA-MRSA): 4.0 µg/mL
MIC ([3]; Strain 22, HA-MRSA): 4.0 µg/mL
MIC ([3]; Strain 23, CA-MRSA PVL+): 4.0 µg/mL
MIC ([3]; Strain 24, CA-MRSA PVL+): 4.0 µg/mL
MIC ([3]; Strain 25, CA-MRSA PVL neg): 2.0 µg/mL
MICs of each agent alone ([3]; range over 25 S. aureus strains): 0.5 to 8 µg/mL
MICs for strains with genes encoding AMEs ([1]; 3 strains: 2 ant(2″)-Ia, 1 aac(6′)-Ib): equivalent to strains lacking AMEs
MIC ([1]; Strain 1): 64 µg/mL
MIC ([1]; Strain 2): 16 µg/mL
MIC ([1]; Strain 3): 16 µg/mL
MIC ([1]; Strain 4): 16 µg/mL
MIC ([1]; Strain 5): 32 µg/mL
MIC ([1]; Strain 6): 8 µg/mL
MIC ([1]; Strain 7): 16 µg/mL
MIC ([1]; Strain 8): 16 µg/mL
MIC ([1]; Strain 9): 16 µg/mL
MIC ([1]; Strain 10): 32 µg/mL
MICs of each agent alone ([1]; range over 10 P. aeruginosa strains): 8 to 64 µg/mL

MIC [1, 4]: 8 µg/mL
MIC [1, 5]: 2 µg/mL
MIC [1, 6]: 8 µg/mL
MIC [1, 7]: 16 µg/mL
MIC [1, 8]: 32 µg/mL
MIC [1, 9]: 0.25 µg/mL
MIC [1, 10]: 4 µg/mL
MIC [1, 11]: 4 µg/mL
MIC [1, 12]: 32 µg/mL
MIC [1, 13]: 32 µg/mL
MIC [1, 14]: 0.25 to 32 µg/mL
SMILES: C[C@@H](O)[C@H]1C(=O)N2C(C(=O)O)=C(SCCN=CN)C[C@H]12 [Imipenem, imipenem]

MIC ([3]; Staphylococcus aureus, ATCC 33591 / MRSA, Strain 13, ATCC33591 HA-MRSA, read-out: MIC): 2 µg/mL
MIC ([3]; Staphylococcus aureus, MRSA, Strain 6, CA-MRSA, PVL+, read-out: MIC): 4 µg/mL
MIC ([3]; Staphylococcus aureus, MRSA, Strain 7, CA-MRSA, PVL+, read-out: MIC): 4 µg/mL
MIC ([3]; Staphylococcus aureus, MRSA, Strain 8, CA-MRSA, PVL+, read-out: MIC): 2 µg/mL
MIC ([3]; Staphylococcus aureus, MRSA, Strain 14, HA-MRSA, read-out: MIC): 4 µg/mL
MIC ([3]; Staphylococcus aureus, MRSA, Strain 15, HA-MRSA, read-out: MIC): 4 µg/mL
MIC ([3]; Staphylococcus aureus, MRSA, Strain 16, HA-MRSA, read-out: MIC): 4 µg/mL
MIC ([3]; Staphylococcus aureus, MRSA, Strain 17, HA-MRSA, read-out: MIC): 4 µg/mL
MIC ([3]; Staphylococcus aureus, MRSA, Strain 18, HA-MRSA, read-out: MIC): 4 µg/mL
MIC ([3]; Staphylococcus aureus, MRSA, Strain 19, HA-MRSA, read-out: MIC): 4 µg/mL
MIC ([3]; Staphylococcus aureus, MRSA, Strain 20, HA-MRSA, read-out: MIC): 4 µg/mL
MIC ([3]; Staphylococcus aureus, MRSA, Strain 21, HA-MRSA, read-out: MIC): 4 µg/mL
MIC ([3]; Staphylococcus aureus, MRSA, Strain 22, HA-MRSA, read-out: MIC): 4 µg/mL
MIC ([3]; Staphylococcus aureus, MRSA, Strain 23, CA-MRSA PVL+, read-out: MIC): 4 µg/mL
MIC ([3]; Staphylococcus aureus, MRSA, Strain 24, CA-MRSA PVL+, read-out: MIC): 4 µg/mL
MIC ([3]; Staphylococcus aureus, MRSA, Strain 25, CA-MRSA PVL neg, read-out: MIC): 4 µg/mL
MIC ([3]; Staphylococcus aureus, Strain 9, hVISA, read-out: MIC): 4 µg/mL
MIC ([3]; Staphylococcus aureus, Strain 10, hVISA, read-out: MIC): 2 µg/mL
MIC ([3]; Staphylococcus aureus, VISA, Strain 11, VISA, read-out: MIC): 2 µg/mL
MIC ([3]; Staphylococcus aureus, VISA, Strain 12, VISA, read-out: MIC): 4 µg/mL
MIC ([3]; Staphylococcus aureus, VRSA, Strain 1, VRSA, read-out: MIC): 2 µg/mL
MIC ([3]; Staphylococcus aureus, VRSA, Strain 2, VRSA, read-out: MIC): 4 µg/mL
MIC ([3]; Staphylococcus aureus, VRSA, Strain 3, VRSA, read-out: MIC): 2 µg/mL
MIC ([3]; Staphylococcus aureus, VRSA, Strain 4, VRSA, read-out: MIC): 4 µg/mL
MIC ([3]; Staphylococcus aureus, VRSA, Strain 5, VRSA, read-out: MIC): 2 µg/mL
MIC ([3]; Staphylococcus aureus, range over 25 S. aureus strains, read-out: MICs of each agent alone): 2 to 4 µg/mL
SMILES: CC(=O)NC[C@H]1CN(c2ccc(N3CCOCC3)c(F)c2)C(=O)O1 [Linezolid, linezolid]
